For experiment [1], the target named is class C beta-lactamase of Citrobacter freundii (Citrobacter freundii, UniProt P05193). Conditions: cited from earlier work.
The target in experiment [2] is class C beta-lactamase of Pseudomonas aeruginosa (Pseudomonas aeruginosa, UniProt P24735). Conditions: cited from earlier work; for kcat: Pseudomonas aeruginosa.
The test system of experiment [3] is class C beta-lactamase of Enterobacter cloacae 908R. Conditions: cited from earlier work.
In experiment [4] the target is class C beta-lactamase of Escherichia coli K12 (Escherichia coli, UniProt P00811). Conditions: cited from earlier work.
Chain of class C beta-lactamase of Escherichia coli K12 (P00811 20-377): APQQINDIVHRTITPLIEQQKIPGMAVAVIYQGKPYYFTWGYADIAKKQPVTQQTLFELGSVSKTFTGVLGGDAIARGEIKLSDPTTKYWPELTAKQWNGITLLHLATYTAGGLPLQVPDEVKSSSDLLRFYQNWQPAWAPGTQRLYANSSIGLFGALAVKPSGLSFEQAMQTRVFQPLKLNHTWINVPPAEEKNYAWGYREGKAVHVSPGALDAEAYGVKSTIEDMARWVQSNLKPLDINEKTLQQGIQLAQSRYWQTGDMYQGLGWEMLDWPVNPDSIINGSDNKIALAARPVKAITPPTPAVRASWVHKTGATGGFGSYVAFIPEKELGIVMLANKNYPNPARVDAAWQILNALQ
Experiment [5] has as its target class C beta-lactamase of Enterobacter cloacae P99 (Enterobacter cloacae, UniProt P05364). As to conditions: cited from earlier work.
The target of experiment [6] is class C beta-lactamase of Serratia marcescens (Serratia marcescens, UniProt P18539). As to conditions: cited from earlier work; for kcat: Serratia marcescens.
Chain of class C beta-lactamase of Serratia marcescens (P18539 22-376): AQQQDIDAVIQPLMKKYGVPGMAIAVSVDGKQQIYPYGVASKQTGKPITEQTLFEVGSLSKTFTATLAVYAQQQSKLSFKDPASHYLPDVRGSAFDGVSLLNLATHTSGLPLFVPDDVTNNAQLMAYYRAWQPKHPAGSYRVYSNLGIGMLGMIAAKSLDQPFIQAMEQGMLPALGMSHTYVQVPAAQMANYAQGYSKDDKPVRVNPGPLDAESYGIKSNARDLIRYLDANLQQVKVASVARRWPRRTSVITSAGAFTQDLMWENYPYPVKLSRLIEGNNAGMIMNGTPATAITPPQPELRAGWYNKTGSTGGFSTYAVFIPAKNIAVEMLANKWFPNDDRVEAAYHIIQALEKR
The target in experiment [7] is T1, P99A266C beta-lactamase (Enterobacter cloacae, UniProt P05364, A266C).
T1 construct: made in house; host or cells: E. coli BL21(DE3), pET28 vector
T1 sequence (P05364 other isoform, or with tags, fused parts or gaps A266C): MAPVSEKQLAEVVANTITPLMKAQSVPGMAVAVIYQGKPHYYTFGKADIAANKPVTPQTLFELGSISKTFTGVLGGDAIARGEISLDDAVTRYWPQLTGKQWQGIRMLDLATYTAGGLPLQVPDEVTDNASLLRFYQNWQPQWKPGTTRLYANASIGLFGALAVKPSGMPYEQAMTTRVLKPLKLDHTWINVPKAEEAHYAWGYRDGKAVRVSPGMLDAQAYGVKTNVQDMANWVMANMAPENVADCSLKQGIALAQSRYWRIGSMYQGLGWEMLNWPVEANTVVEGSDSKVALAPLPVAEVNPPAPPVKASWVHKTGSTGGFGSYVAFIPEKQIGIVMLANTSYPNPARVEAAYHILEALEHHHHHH
The experiment in a line: Kinetic assay, reporter substrate competition (colorimetric assay). In kind it is biochemical, Enterobacter cloacae P99. The source says: (§1) The colorimetric assay used the competition between a reporter substrate and a beta-lactam antibiotic towards the catalytic site of the class C beta-lactamase. In the absence of beta-lactam antibiotic, the class C beta-lactamase P99 hydrolyzed rapidly the reporter substrate and this reaction produced a deep red (nitrocefin) or yellow (CENTA) coloration.
(§2) In the presence of beta-lactam antibiotic, P99 catalytic activity was less available and thus less able to hydrolyze the reporter substrate. Accordingly, the higher the concentration of beta-lactam antibiotic, the lower the coloration of the medium. In this enzymatic competitive kinetic assay, the UV-Visible absorbance was inversely proportional to the concentration of beta-lactam antibiotic.
(§3) Report substrate: A stock solution of reporter substrate consisting of 10 mM of CENTA in HEPES (4-(2-hydroxyethyl)-1-piperazineethanesulfonic acid) pH 7.8 (20 mM)/NaCl (200 mM) buffer was diluted 10 times in HEPES pH 7.8 (20 mM)/NaCl (200 mM) buffer.
(§4) Solution of enzyme: in a spectrophotometer cell, containing HEPES/NaCl buffer (400 μL) and CENTA (100 μL, 100 μM); 20 μL of P99 enzyme solution was added. The concentration of P99 enzyme was variable in function of the preparation and ranged between 0.01 mg/ml to 100 mg/ml. The absorbance variation was measured at 405 nm during 1 min. The enzyme solution used in the experiment was then diluted until the absorbance variation was comprised between 35 and 45 mUAbs/min cm^−1. This diluted solution was further used in this example.
(§5) 8 standard solutions per antibiotic tested were deposited on a 96-well microplate (40 μL).
(§6) The absorbance was measured using a microplate reader, with each column being measured separately. The program comprised following the kinetic during 4 min, with 1 measure at 405 nm every 10 seconds (24 measures). In each well and simultaneously, a mixture of 45 μl HEPES/NaCl buffer and 5 μl P99 solution was added. The same mixture was used for the 8 wells of each column, and thus prepared in advance for distribution with a multi-channel pipette. After 1 min incubation at 20° C., the reading was started, and KC Junior™ software (BioTek Instruments, Winooski, Vt.) was used to calculate the slope of each reaction kinetic. The experiments were made in triplicate and reproduced over 5 different days.
(§7) Kinetic assays with the P99 beta-lactamase and with P99A266C beta-lactamase were performed in order to test and compare the enzyme activities.

The target of experiment [8] is T2, P99 beta-lactamase (Enterobacter cloacae, UniProt P05364). The experiment is described as above. Format: biochemical. Also noted: made in house; host or cells: E. coli BL21(DE3), pET28-P99.
Text: as §1, §2, §3, §4, §5, §6, §7
Target sequence in this assay (P05364 22-380, added parts left off): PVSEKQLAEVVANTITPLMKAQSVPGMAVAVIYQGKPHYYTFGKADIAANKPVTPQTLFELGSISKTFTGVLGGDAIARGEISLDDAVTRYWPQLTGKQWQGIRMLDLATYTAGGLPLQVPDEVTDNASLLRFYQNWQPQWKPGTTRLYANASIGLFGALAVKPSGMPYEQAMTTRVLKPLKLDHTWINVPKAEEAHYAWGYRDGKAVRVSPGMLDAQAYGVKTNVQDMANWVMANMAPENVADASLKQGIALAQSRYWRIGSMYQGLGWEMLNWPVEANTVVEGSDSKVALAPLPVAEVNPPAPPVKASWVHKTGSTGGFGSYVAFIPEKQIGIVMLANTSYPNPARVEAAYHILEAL

In experiment [9] the target is T2, P99 beta-lactamase. Format: biochemical.
Target sequence in this assay (P05364 21-381): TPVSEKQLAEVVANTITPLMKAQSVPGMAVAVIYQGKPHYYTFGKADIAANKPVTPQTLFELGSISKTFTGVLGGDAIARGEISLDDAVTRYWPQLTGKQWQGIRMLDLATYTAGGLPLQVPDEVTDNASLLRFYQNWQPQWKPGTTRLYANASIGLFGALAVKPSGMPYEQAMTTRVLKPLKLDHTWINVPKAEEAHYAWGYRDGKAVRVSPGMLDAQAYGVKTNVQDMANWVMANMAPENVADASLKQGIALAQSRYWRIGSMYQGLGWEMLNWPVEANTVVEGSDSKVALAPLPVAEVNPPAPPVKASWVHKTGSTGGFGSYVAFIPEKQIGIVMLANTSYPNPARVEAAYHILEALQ

Read-outs that look alike come from different tables or passages of the source.

Chain of class C beta-lactamase of Enterobacter cloacae P99 (P05364 21-381): as above
Chain of class C beta-lactamase of Citrobacter freundii (P05193 21-381): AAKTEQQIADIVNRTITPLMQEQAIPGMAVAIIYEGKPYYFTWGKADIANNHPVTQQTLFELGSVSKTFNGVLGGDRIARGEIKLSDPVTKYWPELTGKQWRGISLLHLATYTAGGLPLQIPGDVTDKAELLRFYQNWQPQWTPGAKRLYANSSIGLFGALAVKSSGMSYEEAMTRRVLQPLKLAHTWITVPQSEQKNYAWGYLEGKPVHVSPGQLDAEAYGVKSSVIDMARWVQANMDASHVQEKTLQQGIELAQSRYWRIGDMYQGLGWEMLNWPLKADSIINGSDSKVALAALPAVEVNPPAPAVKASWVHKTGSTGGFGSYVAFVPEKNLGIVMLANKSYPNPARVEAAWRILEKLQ
Chain of class C beta-lactamase of Pseudomonas aeruginosa (P24735 27-397): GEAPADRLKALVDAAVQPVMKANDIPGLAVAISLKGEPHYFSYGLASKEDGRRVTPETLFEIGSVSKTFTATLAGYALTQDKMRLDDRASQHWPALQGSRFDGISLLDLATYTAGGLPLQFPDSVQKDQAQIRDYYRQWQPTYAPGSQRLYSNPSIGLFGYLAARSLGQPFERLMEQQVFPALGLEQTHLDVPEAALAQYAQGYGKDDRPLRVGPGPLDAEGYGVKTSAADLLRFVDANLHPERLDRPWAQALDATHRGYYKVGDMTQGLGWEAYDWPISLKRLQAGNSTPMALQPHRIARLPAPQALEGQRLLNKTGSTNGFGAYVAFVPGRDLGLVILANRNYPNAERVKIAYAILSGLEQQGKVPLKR

What is called kcat is the number of substrate molecules converted per active site and unit of time at saturation. As a reminder, the Km is the concentration of substrate that gives half-maximal velocity. Regarding `O=C(Cc1cccs1)N[C@@H]1C(=O)N2C(C(=O)[O-])=C(C[n+]3ccccc3)CS[C@H]12` [Cephaloridine], the kcat in [1] is 700 s⁻¹; in experiment [2] it was 110 s⁻¹; in [3], 600 s⁻¹; in [4] it was 130 s⁻¹; in [5], 700 s⁻¹; in experiment [6] it was 1100 s⁻¹. The Michaelis-Menten constant (Km) was 20 µM in [2], 75 µM in experiment [3] and 275 µM in experiment [6].

Regarding `CCN1CCN(C(=O)N[C@@H](C(=O)N[C@@H]2C(=O)N3[C@@H]2SC(C)(C)[C@@H]3C(=O)O)c2ccccc2)C(=O)C1=O` [Piperacillin], the “Diff. (%) P99 vs P99A266C” value in experiment [7] (antibiotic 5 ug/ml) is reported as 16%; in [7] (antibiotic 10 ug/ml), 4%; in experiment [7] (antibiotic 20 ug/ml) it was 6%; in experiment [7] (antibiotic 40 ug/ml), −4%. Further, the P99A266C rate in [7] (antibiotic 5 ug/ml) came to 8.3 mUAbs/min; in [7] (antibiotic 10 ug/ml), 6.1 mUAbs/min; in experiment [7] (antibiotic 20 ug/ml), 3.8 mUAbs/min; in experiment [7] (antibiotic 40 ug/ml), 2.5 mUAbs/min. In addition, the P99 rate in experiment [8] (antibiotic 5 ug/ml) is 9.7 mUAbs/min; in [8] (antibiotic 10 ug/ml), 6.4 mUAbs/min; in experiment [8] (antibiotic 20 ug/ml) it was 4.0 mUAbs/min; in [8] (antibiotic 40 ug/ml), 2.4 mUAbs/min.

For ampicillin-fluorescein [Ampi-flu], the “v0 (standard curve)” value was 0.2638 ΔAbs482/min in [9] (0.1 mg/L); 0.2336 ΔAbs482/min in [9] (0.5 mg/L); 0.169 ΔAbs482/min in experiment [9] (1.5 mg/L); 0.1064 ΔAbs482/min in experiment [9] (3 mg/L); 0.063 ΔAbs482/min in experiment [9] (5 mg/L); 0.0389 ΔAbs482/min in experiment [9] (7.5 mg/L). In addition, the “v0 (standard curve)” value in experiment [9] (10 mg/L) was 0.025 ΔAbs482/min. The “v0/v0max (standard curve)” value in experiment [9] (0.1 mg/L) stood at 98%; in [9] (0.5 mg/L), 87%; in experiment [9] (1.5 mg/L), 63%; in experiment [9] (3 mg/L) it was 39%; in [9] (5 mg/L), 23%; in [9] (7.5 mg/L), 14%. In addition, the “v0/v0max (standard curve)” value in experiment [9] (10 mg/L) came out at 9%. In addition, the “v0/v0max due to ampi-flu” value in [9] (sample 3, calculated from equation 3) is listed as 59%.

In the case of `CC1(C)S[C@@H]2[C@H](NC(=O)Cc3ccccc3)C(=O)N2[C@H]1C(=O)O` [Benzylpenicillin], the Km is 0.4 µM in [1]; 1.7 µM in experiment [2]; 0.5 µM in [3]; 0.6 µM in experiment [5]; 1.7 µM in [6]. Besides, the kcat in experiment [1] is 31 s⁻¹; in experiment [2] it was 76 s⁻¹; in [3], 18 s⁻¹; in [4] it was 45 s⁻¹; in experiment [5], 14 s⁻¹; in [6], 75 s⁻¹.

`O=C(Cc1cccs1)N[C@@H]1C(=O)N2C(C(=O)O)=C(/C=C/c3ccc([N+](=O)[O-])cc3[N+](=O)[O-])CS[C@H]12` [Nitrocefin]: the kcat was 330 s⁻¹ in experiment [1]; 742 s⁻¹ in [2]; 780 s⁻¹ in experiment [3]; 490 s⁻¹ in experiment [4]; 780 s⁻¹ in experiment [5]; 1240 s⁻¹ in experiment [6]. In addition, the Km was 27 µM in [2], 23 µM in experiment [3], 25 µM in [5] (read-out: Km) and 40 µM in experiment [6].
